Nine compounds from publication PMC7180830, “Scaffold Hopping in Discovery of HIV-1 Non-Nucleoside Reverse Transcriptase Inhibitors: From CH(CN)-DABOs to CH(CN)-DAPYs” (Molecules, 2020) can be followed below.

Each structure is given as a SMILES string.

In one data set the test system is HIV-1 IIIB. The data set is described as follows: Anti-HIV assay against wild-type HIV-1 (IIIB) in MT-4 cells, MTT method. The data set is classed as cell-based. The note with it: for SI (selectivity index, ratio CC50/EC50 (WT)): CC50/EC50 WT HIV-1 IIIB, MT-4 cells; for EC50: Human immunodeficiency virus 1, IIIB, MT4, read-out: EC50 HIV-1 IIIB. As to the method:
(§1) Untreated HIV- and mock-infected cell samples were included as controls. […] Five days after infection, the viability of mock- and HIV-infected cells was examined spectrophotometrically using the MTT assay. […] All data were calculated using the median absorbance value of three wells.

Data set [1] in a line: Cytotoxicity in mock-infected MT-4 cells, MTT method. The following applies: human, mock-infected (uninfected) MT-4 cells. As to the method: as §1
In data set [2] the test system is HIV-1 L100I mutant strain. The data set is described as follows: Anti-HIV assay against L100I mutant strain in MT-4 cells. The format is cell-based. The following applies: Human immunodeficiency virus 1, MT4, read-out: EC50 L100I.
Procedure: (§2) Evaluation of the antiviral activity of the compounds against HIV in MT-4 cells was performed using the MTT assay as previously described [24, 25]. […] Prior to use in our assays, every freshly grown virus stock was the subject of a genotypic analysis. In addition to the genotypic analysis, every stock was subject to a phenotypic analysis using a panel of relevant reference compounds in MT-4 cells. […] Stock solutions (10× final concentration) of test compounds were added in 25 μL volumes to two series of triplicate wells so as to allow simultaneous evaluation of their effects on mock- and HIV-infected cells at the beginning of each experiment. Serial 5-fold dilutions of test compounds were made directly in flat-bottomed 96-well microtiter trays using a Biomek 3000 robot (Beckman instruments, Fullerton, CA). Untreated HIV- and mock-infected cell samples were included as controls. HIV stock (50 μL) at 100–300 CCID50 (50% cell culture infectious doses) and culture medium (final 200 μL volume per well) were added to either the infected or mock-infected wells of the microtiter tray. Mock-infected cells were used to evaluate the effects of test compounds on uninfected cells in order to assess the cytotoxicity of the test compounds. Exponentially growing MT-4 cells were centrifuged for 5 min at 220× g and the supernatant was discarded. The MT-4 cells were resuspended at 6 × 10^5 cells/mL and 50 μL volumes were transferred to the microtiter tray wells. Five days after infection, the viability of mock- and HIV-infected cells was examined spectrophotometrically using the MTT assay. The MTT assay is based on the reduction of yellow colored 3-(4,5-dimethylthiazol-2-yl)-2,5-diphenyltetrazolium bromide (MTT) (Acros Organics, Geel, Belgium) by mitochondrial dehydrogenase activity in metabolically active cells to a blue-purple formazan that can be measured spectrophotometrically. The absorbances were read in an eight-channel computer-controlled photometer (Infinite M1000, Tecan, Männedorf, Switzerland) at two wavelengths (540 and 690 nm). All data were calculated using the median absorbance value of three wells.
Data set [3] concerns HIV-1 K103N mutant strain. As to the kind of experiment: Anti-HIV assay against K103N mutant strain in MT-4 cells. The format is cell-based. The following applies: Human immunodeficiency virus 1, MT4, read-out: EC50 K103N.
Procedure: as §2
Data set [4] deals with HIV-1 Y181C mutant strain. The data set is described as follows: Anti-HIV assay against Y181C mutant strain in MT-4 cells. The format is cell-based. The note with it: Human immunodeficiency virus 1, MT4, read-out: EC50 Y181C.
Procedure: as §2
In data set [5] the test system is HIV-1 E138K mutant strain. The data set is described as follows: Anti-HIV assay against E138K mutant strain in MT-4 cells. The format is cell-based. The following applies: Human immunodeficiency virus 1, MT4, read-out: EC50 E138K.
Procedure: as §2
Data set [6] relates to HIV-1 F227L + V106A mutant strain. As to the kind of experiment: Anti-HIV assay against double mutant F227L + V106A in MT-4 cells. The data set is classed as cell-based. The following applies: Human immunodeficiency virus 1, MT4, read-out: EC50 F227L + V106A.
Procedure: as §2
Data set [7] relates to HIV-1 K103N + Y181C mutant strain. The data set is described as follows: Anti-HIV assay against double mutant K103N + Y181C in MT-4 cells. The following applies: Human immunodeficiency virus 1, MT4, read-out: EC50 K103N + Y181C. The format is cell-based.
Procedure: as §2
The next data set has as its target T1, WT HIV-1 RT (Human immunodeficiency virus type 1 group M subtype B, UniProt P03366).
T1 construct: Recombinant wild type p66/p51 HIV-1 RT; made in house
As to the kind of experiment: Reverse transcriptase assay (EnzCheck kit, PicoGreen). The format is biochemical. The note with it: recombinant wild type p66/p51 HIV-1 RT.

A further data set concerns MT-4 cells. As to the kind of experiment: Cytotoxicity in mock-infected MT-4 cells, MTT method. The following applies: MT-4 cells; relative to RPV CC50. As to the method: as §1
Background: Tetrazolium dyes change colour on reduction, which living cells bring about.

One may read the EC50 as the concentration that produces a half-maximal response. For orientation: CC50 means the concentration that lowers cell viability or growth by half. Broadly, the IC50 is the point on the concentration scale where inhibition reaches its midpoint. A word on the melting point: it is the temperature, or range, at which the solid turns liquid.

Procedure for WT HIV-1 RT: The RT assay was performed with the EnzCheck Reverse Transcriptase Assay kit (Molecular Probes, Invitrogen), as described by the Manufacturer. The assay is based on the dsDNA quantitation reagent PicoGreen. […] This condition is met in the assay. A poly(rA) template of approximately 350 bases long and an oligo (dT)16 primer are annealed in a molar ratio of 1:1.2 (60 min at room temperature). Then, 52 ng of the RNA/DNA is brought into each well of a 96-well plate in a volume of 20 μL polymerization buffer (60 mM Tris-HCl, 60 mM KCl, 8 mM MgCl2, 13 mM DTT, 100 μM dTTP, pH 8.1). Then, 5 μL of RT enzyme solution, diluted to a suitable concentration in enzyme dilution buffer (50 mM Tris-HCl, 20% glycerol, 2 mM DTT, pH 7.6), is added. The reactions are incubated at 25 °C for 40 min and then stopped by the addition of EDTA (15 mM fc). Heteroduplexes are then detected by addition of PicoGreen. Signals are read using an excitation wavelength of 490 nm and emission detection at 523 nm using a spectrofluorometer (Safire 2, Tecan). To test the activity of compounds against RT, 1 μL of compound in DMSO was added to each well before the addition of RT enzyme solution. Control wells without compound contained the same amount of DMSO. Results are expressed as relative fluorescence, i.e., the fluorescence signal of the reaction mix with compound divided by the signal of the same reaction mix without compound.

For `Cc1cnc(Nc2ccc(C#N)cc2)nc1C(C#N)c1ccc(C#N)cc1Cl` (stereo not shown) [Compound B3, 4-(4-(cyano-(2-chloro-4-cyanophenyl)methyl)-5-methylpyrimidin-2-ylamino)benzonitrile], the melting point was 213.6 to 214.2 °C. In the data set with HIV-1 IIIB, the “SI (selectivity index, ratio CC50/EC50 (WT))” value came to 920 and the EC50 worked out at 0.01 ± 0.01 µM. The compound further showed a CC50 at 5 days in data set [1] of 9.6 ± 2.7 µM. Besides, the concentration for a half-maximal effect (EC50) in data set [2] is 0.82 ± 0.15 µM. The EC50 in data set [3] stood at 0.08 ± 0.02 µM. In addition, the EC50 in data set [4] amounted to 0.26 ± 0.02 µM. Further, in [5], the concentration for a half-maximal effect (EC50) is 0.14 ± 0.03 µM. Besides, the EC50 in data set [6] worked out at 4.04 ± 0.7 µM. In addition, the EC50 in data set [7] was above 9.56 µM. For the same compound, on WT HIV-1 RT, the IC50 is 0.05 ± 0.03 µM.

`COc1cc(C#N)ccc1C(C#N)c1ccnc(Nc2ccc(C#N)cc2)n1` (stereo not shown) [Compound A5, 4-(4-(cyano-(2-methoxy-4-cyanophenyl)methyl)-pyrimidin-2-ylamino)benzonitrile]: the melting point was in the range of 189.4 to 190.1 °C. In addition, in the data set with HIV-1 IIIB, the “SI (selectivity index, ratio CC50/EC50 (WT))” value was found to be 434 and the EC50 is 0.059 ± 0.011 µM. For the same compound, in the data set on HIV-1 IIIB (WT HIV-1 IIIB, relative to A4), the “fold higher activity than the 3-substituted analogue (A4)” value is on record as 200 fold. For the same compound, the CC50 at 5 days in data set [1] amounted to 25.8 ± 8.7 µM. In the data set with MT-4 cells, the “CC50 fold higher than that of RPV” value is “about 5 fold”. Moreover, the EC50 in data set [2] was 4.72 ± 0.79 µM. Moreover, in data set [3], the EC50 worked out at 0.68 ± 0.16 µM. The EC50 in [4] amounted to 1.25 ± 0.58 µM. Besides, in [5], the EC50 worked out at 1.63 ± 0.32 µM. Also, in data set [6], the EC50 is at least 12.4 µM. In addition, in data set [7], the concentration giving a half-maximal response (EC50) is above 25.9 µM.

In turn, `Cc1cnc(Nc2ccc(C#N)cc2)nc1C(C#N)c1ccc(C#N)c(Cl)c1C` (stereo not shown) [Compound B5, 4-(4-(cyano-(2-methyl-3-chloro-4-cyanophenyl)methyl)-5-methylpyrimidin-2-ylamino)benzonitrile] showed a melting point of 205.4 to 206.5 °C. Further, in the data set on HIV-1 IIIB, the “SI (selectivity index, ratio CC50/EC50 (WT))” value came to 370 and the EC50 worked out at 0.02 ± 0.008 µM. Further, the CC50 at 5 days in data set [1] was 8.6 ± 2.2 µM. The EC50 in data set [2] was found to be 1.82 ± 0.4 µM. In addition, in data set [3], the EC50 came out at 0.39 ± 0.07 µM. The EC50 in data set [4] is 1.02 ± 0.2 µM. For the same compound, the EC50 in data set [5] was determined as 0.6 ± 0.1 µM. Besides, in data set [6], the EC50 worked out at 1.66 ± 0.27 µM. Besides, the EC50 in data set [7] is above 8.58 µM. Further, at WT HIV-1 RT, the IC50 was 0.07 ± 0.02 µM.

In the case of `Cc1cnc(Nc2ccc(C#N)cc2)nc1C(C#N)c1ccc(C#N)cc1Br` (stereo not shown) [Compound B4, 4-(4-(cyano-(2-bromo-4-cyanophenyl)methyl)-5-methylpyrimidin-2-ylamino)benzonitrile], the EC50 with HIV-1 IIIB came to 0.006 ± 0.001 µM; in data set [2], 0.51 ± 0.19 µM; in [3], 0.08 ± 0.03 µM; in data set [4], 0.16 ± 0.17 µM; in data set [5], 0.11 ± 0.04 µM; in data set [6] it was 2.35 ± 0.18 µM. Besides, the EC50 in data set [7] is above 6.62 µM. Further, in [1], the CC50 at 5 days stood at 6.6 ± 1.3 µM. The IC50 on WT HIV-1 RT came to 0.06 ± 0.03 µM.

For `Cc1cnc(Nc2ccc(C#N)cc2)nc1C(C#N)c1ccc(C#N)cc1F` (stereo not shown) [Compound B2, 4-(4-(cyano-(2-fluoro-4-cyanophenyl)methyl)-5 methylpyrimidin-2-ylamino)benzonitrile], the EC50 with HIV-1 IIIB was 0.04 ± 0.02 µM; in data set [2], 3.04 ± 1.13 µM; in data set [3], 1.07 ± 0.37 µM; in data set [4], 1.59 ± 0.18 µM; in data set [5], 0.97 ± 0.14 µM; in data set [6], above 20.6 µM. In data set [7], the EC50 is above 20.6 µM. Also, in data set [1], the CC50 at 5 days was determined as 20.6 ± 3.6 µM. The IC50 at WT HIV-1 RT was 0.22 ± 0.05 µM.

As for `N#Cc1ccc(Nc2nccc(C(C#N)c3ccc(C#N)cc3F)n2)cc1` (stereo not shown) [Compound A7, 4-(4-(cyano-(2-fluoro-4-cyanophenyl)methyl)-pyrimidin-2-ylamino)benzonitrile], the melting point is 165.7 to 166.5 °C. Besides, in the data set with HIV-1 IIIB, the “SI (selectivity index, ratio CC50/EC50 (WT))” value is given as 43 and the EC50 amounted to 0.24 ± 0.16 µM. For the same compound, the CC50 at 5 days in data set [1] was found to be 10.3 ± 4.5 µM. Also, the EC50 in data set [2] was above 10.4 µM. Moreover, the EC50 in data set [3] is above 10.4 µM. Besides, in data set [4], the EC50 is above 10.4 µM. Besides, the EC50 in [5] is above 10.4 µM. Besides, the EC50 in [6] is above 10.4 µM. Besides, the EC50 in [7] is above 10.4 µM.

On to `Cc1cc(C#N)c(Br)cc1C(C#N)c1nc(Nc2ccc(C#N)cc2)ncc1C` (stereo not shown) [Compound B6, 4-(4-(cyano-(2-methyl-5-bromo-4-cyanophenyl)methyl)-5-methylpyrimidin-2-ylamino)benzonitrile], for which the melting point lay within 232.3 to 233.9 °C. For the same compound, in the data set with HIV-1 IIIB, the “SI (selectivity index, ratio CC50/EC50 (WT))” value was found to be 1215 and the EC50 came out at 0.008 ± 0.004 µM. In data set [1], the CC50 at 5 days is 9.8 ± 3.5 µM. In data set [2], the EC50 was found to be 0.86 ± 0.19 µM. In addition, the EC50 in data set [3] was 0.06 ± 0.01 µM. Further, in data set [4], the EC50 stood at 0.33 ± 0.1 µM. Moreover, in data set [5], the EC50 is 0.17 ± 0.06 µM. Moreover, the EC50 in data set [6] worked out at 1.52 ± 0.15 µM. Also, in data set [7], the EC50 was above 9.79 µM. The IC50 at WT HIV-1 RT was 0.06 ± 0.02 µM.

With `Cc1cnc(Nc2ccc(C#N)cc2)nc1C(C#N)c1ccc(C#N)cc1` (stereo not shown) [Compound B1, 4-(4-(cyano-(4-cyanophenyl)methyl)-5-methylpyrimidin-2-ylamino)benzonitrile], the melting point is 243.1 to 243.7 °C. For the same compound, in the data set on HIV-1 IIIB, the “SI (selectivity index, ratio CC50/EC50 (WT))” value worked out at 356 and the EC50 was 0.3 ± 0.11 µM. For the same compound, the CC50 at 5 days in data set [1] was determined as 109 ± 80 µM. For the same compound, the EC50 in data set [2] was 8.03 ± 4.43 µM. Besides, the EC50 in [3] is 3.95 ± 0.22 µM. Further, in data set [4], the EC50 was found to be 7.05 ± 0.96 µM. Moreover, in [5], the EC50 came to 4.92 ± 0.3 µM. Further, the EC50 in [6] is at least 59 µM. Also, the EC50 in data set [7] is above 109 µM. For the same compound, the half-maximal inhibitory concentration (IC50) at WT HIV-1 RT was determined as 1.46 ± 0.09 µM.

In turn, `N#Cc1ccc(Nc2nccc(C(C#N)c3ccc(C#N)cc3Br)n2)cc1` (stereo not shown) [Compound A9, 4-(4-(cyano-(2-bromo-4-cyanophenyl)methyl)-pyrimidin-2-ylamino)benzonitrile] registered a melting point of 223.5 to 224.7 °C. Besides, in the data set with HIV-1 IIIB, the “SI (selectivity index, ratio CC50/EC50 (WT))” value was determined as 42 and the EC50 turned out to be 0.079 ± 0.02 µM. The same compound had a 50% cytotoxic concentration (CC50) at 5 days in [1] of 3.4 ± 0.3 µM. Further, in data set [2], the EC50 was above 3.35 µM. Further, the EC50 in data set [3] is at least 1.88 µM. For the same compound, the EC50 in data set [4] stood at 1.88 ± 0.42 µM. In addition, the EC50 in [5] was determined as 2.31 ± 0.02 µM. Moreover, the EC50 in [6] is above 3.35 µM. In [7], the EC50 was above 3.35 µM.
